# Source: ChEMBL document CHEMBL1131939, “The synthesis and P388 cytotoxicity of mycalazol 11 and related 5-acyl-2-hydroxymethylpyrroles” (1999)
# Test system: P388
# Assay: In vitro cytotoxicity against the P388 murine leukemia cell line was determined
# Assay type: functional
# Conditions: Mus musculus, read-out: ID50 (the source's name)
row,SMILES,IC50
1,CCCCCCCCCCCCCCCCCCC(=O)c1ccc(CO)[nH]1,24 µg/mL
2,CCCCCCCCCCCC(=O)c1ccc(CO)[nH]1,21 µg/mL
3,CCCCCCCCCCCCC(=O)c1ccc(CO)[nH]1,52 µg/mL
4,CCCCCC(=O)c1ccc(CO)[nH]1,78 µg/mL
